The text below walks through data of PMC7708037, “Targeting OGG1 arrests cancer cell proliferation by inducing replication stress” (Nucleic Acids Research, 2020).

Common to all, as to assay type: cell-based, human
Test [1] deals with HEK293T and HEK293T(KO) cells. The test can be described thus: Colony area of HEK293T vs HEK293T(KO). Particulars: 8 days exposure. From the text: 250 HEK293T or HEK293T (KO) cells were counted and seeded in 6-well plates for 8 days in the presence or absence of TH5487 at indicated concentrations. Colonies were directly scanned after removing media and drying colonies. Area of HEK293T or HEK293T(KO) colonies was digitally colour contrasted and then analysed using ImageJ. […]
untreated parental HEK293T. Data are average ±SEM of 4 technical replicates from 2 independent experiments. F. Comparative analysis of the colony area (pixels) for HEK293T or HEK293T(KO) cells exposed for eight days to TH5487 or DMSO. Data are average ±SEM of 4 technical replicates from 2 independent experiments. Statistical significance was determined using Mann Witney test (**, P<0.01, ***, P<0.001 and ****, P<0.0001 , ns, non-significant).
Supplementary Fig. S6: 8 -oxodG levels and cell cycle distribution. A. 8-oxodG accumulation in A3 knockdown cells. The indicated shNT cells were treated with 250 ng/ml doxycycline for 0, 96, or 144 h, and the amount of genomic 8-oxodG was quantified with LC -MS/MS. […] Cells were treated with 10 µM TH5487 or an equivalent volume DMSO for the indicated times, and the cell cycle distribution was determined by flow cytometry. […] A3 shNT (grey), sh2 (blue), and sh3 (red), were treated with 250 ng/ml doxycycline for 48 –120 h, and the cell cycle distribution was determined with flow cytometry. […]

The next test deals with ACHN. Nature of the test: Colony formation assay. The note with it: 6–11 days, Figure 3D. How it is done:
(§1) The indicated concentrations TH5487 were spotted in 6-well plates using a Tecan D300e digital dispenser. 200–500 cells/well H460, ACHN, Ogg1^−/− mouse embryonic fibroblasts and MRC5 cells were then seeded at 200–500 cells/well and incubated for 7–11 days. Colonies exceeding 50 cells were fixed, stained and enumerated as above.
(§2) Figure 3. The OGG1 inhibitor TH5487 is selectively toxic to oncogene-expressing cells and cancer cell lines. (A) Close-up view of ligand TH5487 (green) binding to human OGG1. Important residues in the binding site are marked, hydrogen bond interactions are shown in black dashed line, water (red sphere)-mediated interactions in grey dashed line. (B) Comparison between the binding of ligand TH5487 (green) to human OGG1 (gray) with the structure of TH5675 (pink) bound to mouse OGG1 (yellow, PDB 6G3Y). (C) Viability of BJ-Tert and BJ-Ras cells exposed to the indicated concentrations TH5487 for five days. Data are average ±SD of four technical replicates from two independent experiments. (D) Clonogenic survival of cell lines exposed to TH5487. The cancer cell lines ACHN and H460, and the non-transformed cell lines MRC5 and Ogg1^−/− mouse embryonic fibroblasts (MEF) were incubated for 6–11 days in the presence of the indicated concentrations TH5487, followed by colony enumeration. Data are average ±SD values of four technical replicates, representative of three independent experiments. (E) TH5487 selectively decreases viability of cancer cell lines. EC50-values of 34 cancer (red) and 7 non-transformed cell lines (blue). Cells were exposed to a dilution series of TH5487 for five days followed by a viability assessment using resazurin. All cell lines were tested in two to ten independent experiments. Each point represents the EC50-value from one experiment (average of two or three technical replicates). (F) Comparative analysis of EC50 values for TH5487 in cancer- and non-transformed cell lines, and CD34+ hematopoietic stem cells, CD34- fraction from cord blood or PBMCs from healthy donor blood. […]

A further test relates to MRC5. The test can be described thus: Colony formation assay. The note with it: MRC5, up to 20 μM. How it is done:
as §1, §2

The test system of another test is H460. The test can be described thus: Colony formation assay. The note with it: H460, 6–11 days, Figure 3D. How it is done: as §1, §2

Each structure is given as a SMILES string.

For the molecule `O=C(Nc1ccc(I)cc1)N1CCC(n2c(=O)[nH]c3c(Br)cccc32)CC1` [TH5487], the “Colony area, HEK293T compared to HEK293T (KO)” value in test [1] is given as “significantly reduced”. Moreover, the Clonogenic potential entry with ACHN is “concentration-dependent loss of clonogenic potential”; with MRC5 it was “unaffected”; in the test with H460 it was “concentration-dependent loss of clonogenic potential”.
